As usually defined, the IC50 is the point on the concentration scale where inhibition reaches its midpoint.

Each structure is given as a SMILES string. ≈ marks a conversion by molar mass, not a printed value. Where only a bound is given, the exact number is not on record here.

Experiment [1] deals with Enterococcus faecium. The experiment can be described thus: Inhibitory activity against Streptococcus faecium MTX-resistant. The class given is functional, organism-based.
Experiment [2] has as its target T1, Thymidylate synthase (Lactobacillus casei, UniProt P00469).
T1 sequence (P00469 whole entry): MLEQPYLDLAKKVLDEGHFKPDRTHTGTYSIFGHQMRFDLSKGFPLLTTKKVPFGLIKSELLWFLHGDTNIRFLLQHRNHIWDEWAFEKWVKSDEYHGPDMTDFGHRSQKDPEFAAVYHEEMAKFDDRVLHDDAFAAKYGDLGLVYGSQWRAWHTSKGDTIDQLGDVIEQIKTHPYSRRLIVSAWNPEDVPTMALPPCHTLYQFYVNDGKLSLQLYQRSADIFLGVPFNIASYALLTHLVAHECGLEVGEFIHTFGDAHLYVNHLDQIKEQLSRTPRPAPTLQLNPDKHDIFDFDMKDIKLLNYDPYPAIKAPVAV
The experiment can be described thus: Inhibitory activity against thymidylate synthase derived from Lactobacillus casei. On the set-up: species or system Lacticaseibacillus casei.

The subject of experiment [3] is Lacticaseibacillus casei. The experiment can be described thus: Inhibitory activity against Lactobacillus casei MTX-resistant. The class given is functional, organism-based.
A further experiment deals with Dihydrofolate reductase (Lactobacillus casei, UniProt P00381).
Experiment [4] has as its system Enterococcus faecium. Put plainly: Inhibitory activity against Streptococcus faecium ATCC 8043. The class given is functional, organism-based.
For experiment [5], the system named is Lacticaseibacillus casei. Put plainly: Inhibitory activity against Lactobacillus casei ATCC 7469. It counts as functional, organism-based.
In experiment [6] the target is T2, Thymidylate synthase (Mus musculus, UniProt P07607). Put plainly: Inhibitory activity against the thymidylate synthase in the Permeabilized L1210 cells. The class given is cell-based.
For experiment [7], the target named is T2, Thymidylate synthase. The experiment can be described thus: Inhibitory activity against thymidylate synthase in the intact L1210 cells. It counts as cell-based.
[8] abbreviates: Lacticaseibacillus casei, read-out: IC50.

Chain of Dihydrofolate reductase (P00381 whole entry): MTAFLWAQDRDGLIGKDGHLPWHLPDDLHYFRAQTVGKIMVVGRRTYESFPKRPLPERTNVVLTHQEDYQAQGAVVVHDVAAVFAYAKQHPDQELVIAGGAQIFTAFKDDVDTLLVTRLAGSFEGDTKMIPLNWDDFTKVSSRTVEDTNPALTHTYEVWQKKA
T2 sequence (P07607 whole entry): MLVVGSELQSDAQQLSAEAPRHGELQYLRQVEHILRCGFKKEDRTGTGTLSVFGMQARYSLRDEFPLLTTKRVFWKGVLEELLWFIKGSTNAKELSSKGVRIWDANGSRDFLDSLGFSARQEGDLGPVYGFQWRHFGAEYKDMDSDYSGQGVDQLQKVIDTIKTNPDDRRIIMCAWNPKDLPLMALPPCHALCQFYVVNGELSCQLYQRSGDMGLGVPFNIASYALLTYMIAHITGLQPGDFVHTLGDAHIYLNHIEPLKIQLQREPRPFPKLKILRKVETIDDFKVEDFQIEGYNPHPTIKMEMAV
Description for Dihydrofolate reductase: Inhibitory activity against dihydrofolate reductase derived from Lactobacillus casei

`C#CCN(CC1=Nc2c(O)nc(N)nc2NC1)c1ccc(C(=O)NC(CCC(=O)O)C(=O)O)cc1` (stereo not drawn): the IC50 was 0.024 µg/mL (≈ 0.0498 µM) in the experiment with Enterococcus faecium [1]; 50 µM on Thymidylate synthase [2]; greater than 2 µg/mL with Lacticaseibacillus casei [3] (setting [8]); greater than 50 µM against Dihydrofolate reductase; 0.13 ng/mL (≈ 0.00027 µM) in the experiment with Enterococcus faecium [4]; 36 ng/mL (≈ 0.0748 µM) in the experiment on Lacticaseibacillus casei [5].

On to `C#CCN(CC1CNc2nc(N)nc(O)c2N1)c1ccc(C(=O)NC(CCC(=O)O)C(=O)O)cc1` (stereo not drawn), for which the IC50 was greater than 2 µg/mL in the experiment on Enterococcus faecium [1]; 32 µM on Thymidylate synthase [2]; greater than 2 µg/mL with Lacticaseibacillus casei [3] (setting [8]); greater than 140 µM against Dihydrofolate reductase; 0.08 ng/mL (≈ 0.000165 µM) in the experiment on Enterococcus faecium [4]; greater than 2000 ng/mL in the experiment on Lacticaseibacillus casei [5].

Consider `CN(Cc1cnc2nc(N)nc(O)c2n1)c1ccc(C(=O)NC(CCC(=O)O)C(=O)O)cc1` (stereo not drawn), for which the figures for the IC50 against Thymidylate synthase [6] and at Thymidylate synthase [7] were 660 µM and greater than 1 mM, respectively.

Turning to `C#CCN(Cc1cnc2nc(N)nc(O)c2n1)c1ccc(C(=O)O)cc1`, the 50% inhibitory concentration (IC50) is greater than 2 µg/mL with Enterococcus faecium [1]; greater than 290 µM at Thymidylate synthase [2]; greater than 2 µg/mL in the experiment on Lacticaseibacillus casei [3] (setting [8]); greater than 100 µM at Dihydrofolate reductase; 0.76 ng/mL (≈ 0.00217 µM) in the experiment with Enterococcus faecium [4]; greater than 2000 ng/mL with Lacticaseibacillus casei [5].

Take `C#CCN(Cc1cnc2nc(N)nc(O)c2n1)c1ccc(C(=O)NC(CCC(=O)O)C(=O)O)cc1` (stereo not drawn): the 50% inhibitory concentration (IC50) with Enterococcus faecium [1] is greater than 2 µg/mL; at Thymidylate synthase [2], 3.9 µM; on Thymidylate synthase [6], 7.5 µM; in the experiment with Lacticaseibacillus casei [3] (setting [8]), greater than 2 µg/mL; at Dihydrofolate reductase, greater than 100 µM; in the experiment on Enterococcus faecium [4], 0.56 ng/mL (≈ 0.00117 µM). In addition, the IC50 with Lacticaseibacillus casei [5] is greater than 2000 ng/mL; at Thymidylate synthase [7], greater than 3 mM.

Take `C#CCN(Cc1ccc2[nH]c(N)nc(=O)c2c1)c1ccc(C(=O)NC(CCC(=O)O)C(=O)O)cc1` (stereo not drawn): the IC50 in the experiment with Lacticaseibacillus casei [3] (setting [8]) was found to be 2 µg/mL (≈ 4.19 µM).

`Nc1nc2ncc(CNc3ccc(C(=O)N[C@@H](CCC(=O)O)C(=O)O)cc3)nc2c(=O)[nH]1` [FOLIC ACID]: the IC50 at Thymidylate synthase [6] is 1800 µM; against Thymidylate synthase [7], greater than 1 mM.

Consider `CN(Cc1cnc2nc(N)nc(N)c2n1)c1ccc(C(=O)N[C@@H](CCC(=O)O)C(=O)O)cc1` [METHOTREXATE], for which the IC50 with Lacticaseibacillus casei [3] is greater than 500 µg/mL; in the experiment with Lacticaseibacillus casei [5], 0.02 ng/mL (≈ 4.4e-05 µM).

Values taken from ChEMBL document CHEMBL1123313, “Folate analogues. 25. Synthesis and biological evaluation of N10-propargylfolic acid and its reduced derivatives” (J Med Chem, 1986).
